Assay: In vitro release of DMS from DMS-prodrug-loaded core-cross-linked polymeric micelles
Type: physicochemical
Conditions: for 50% release of DMS: physiological conditions, prodrug covalently entrapped in CCL PM
Method: The eluent was acetonitril/H2O (23:77, v/v) with a flow rate of 1 mL/min. The sample volume was 7.5 μL. UV detection occurred at 246 nm.
The hydrolysis rate of a specific ester was pH-dependent in its turn, in that at pH 8.4 hydrolysis was accelerated as compared to the hydrolysis rate at pH 7.4. […] The same trend is consistently observed at different pH (i.e. 7.4 and 8.4) and for the different types of micelles (based on HPMAm and HEMAm).

Structure (SMILES)	50% release of DMS	DMS release rate followed by UPLC (prodrug CCL PM, buffer pH 7.4 / 8.4, 37° C.)
C=C(C)C(=O)OCCS(=O)(=O)CC(=O)OCC(=O)[C@@]1(O)[C@H](C)CC2[C@@H]3CCC4=CC(=O)C=C[C@]4(C)[C@@]3(F)[C@@H](O)CC21C (stereo partly drawn) [DMSL3, 2-(2-(2-((8S,9R,10S,11S,16R,17R)-9-fluoro-11,17-dihydroxy-10,13,16-trimethyl-3-oxo-6,7,8,9,10,11,12,13,14,15,16,17-dodecahydro-3H-cyclopenta[α]phenanthren-17-yl)-2-oxoethoxy)-2-oxoethylsulfonyl)ethyl methacrylate]	~1 weeks	–
C=C(C)C(=O)OCCSCC(=O)OCC(=O)[C@@]1(O)[C@H](C)CC2[C@@H]3CCC4=CC(=O)C=C[C@]4(C)[C@@]3(F)[C@@H](O)CC21C (stereo partly drawn) [DMSL1, 2-(2-(2-((8S,9R,10S,11S,16R,17R)-9-fluoro-11,17-dihydroxy-10,13,16-trimethyl-3-oxo-6,7,8,9,10,11,12,13,14,15,16,17-dodecahydro-3H-cyclopenta[α]phenanthren-17-yl)-2-oxoethoxy)-2-oxoethylthio)ethyl methacrylate]	~4 weeks	very slow release

From US9339554B2, “Tunable, biodegradable linker molecules for transient conjugation of components in drug delivery systems, and drug delivery systems prepared therewith” (CRISTAL DELIVERY B.V., priority 2010, dated 2016)
